Tested on: Plasmodium falciparum
Assay: GSK_TCMDC: Inhibition of Plasmodium falciparum 3D7 in whole erythrocytes, using parasite LDH activity as an index of growth.
Assay type: functional, organism-based
Details: Plasmodium falciparum, 3D7

Row | Compound | XC50
1 | O=C(Nc1ccc([N+](=O)[O-])cc1)c1nn(-c2ccccc2)cc1/N=C/c1cccc(O)c1 | 890 nM
2 | O=C(Nc1cccc(CN2CCCN(Cc3ccc(O)cc3)CC2)c1)c1ccc(Cl)c(Cl)c1 | 259 nM
3 | CCCC(C)N(Cc1ccc(C(C)(C)C)cc1)C(=O)c1ccc(OC)cc1 (stereo unspecified) | 111 nM
4 | COc1cccc(-n2ncc3c(N/N=C/c4ccc(CN(C)CCN(C)C)cc4)ncnc32)c1 | 893 nM
5 | O=C(c1ccc(F)c(F)c1)N1CCOC(CCN2CCC(c3ccccc3)CC2)(c2ccc(Cl)c(Cl)c2)C1 (stereo unspecified) | 1040 nM
6 | CC(=O)N(C)c1cccc(C(=O)Nc2cccc(-c3cccc(-c4nc5cc(C(F)(F)F)ccc5[nH]4)c3)c2)c1 | 236 nM
7 | CCOC(=O)c1ccc(NC(=O)Nc2cccc(-c3ccc(-c4nc5cc(C(F)(F)F)ccc5[nH]4)cc3)c2)cc1 | 212 nM
8 | CC(C)(C)c1ccc(Cn2c(=N)n(CC(=O)c3ccc(-c4ccccc4)cc3)c3ccccc32)cc1 | 158 nM
9 | c1ccc(Oc2ccc(Nc3ccnc(Nc4ccc5cn[nH]c5c4)n3)cc2)cc1 | 733 nM
10 | COc1ccc(C(=O)Nc2ccc3nc(N4CCCCC4)cc(C)c3c2)cc1OC | 994 nM
11 | O=C(CCCCCNC(=O)c1ccc(O)c(-c2ccc(Cl)c(Cl)c2)c1)NC1CCCCCC1 | 947 nM
12 | Cc1ccnc(NC(=O)c2cc(-c3cccc([N+](=O)[O-])c3)nc3onc(C)c23)c1 | 888 nM
13 | c1ccc(Oc2ccc(Nc3ccnc4c(-c5ccccn5)cccc34)cc2)cc1 | 987 nM
14 | COc1cc(NC(=O)CCCN2CCN(c3cccc(Cl)c3Cl)CC2)ccc1N1CCN(C(C)C)CC1 | 946 nM
15 | CCCCNC[C@@H](O)[C@H](Cc1ccccc1)NC(=O)c1cc2c3c(c1)c(CC)cn3CCS(=O)(=O)N2C | 196 nM
16 | COc1cc2c(cc1S(=O)(=O)c1ccc(NC(=O)c3cc4ccccc4s3)cc1)CCN(C)CC2 | 837 nM
17 | CCc1ccc(CN2CCC(NC(=O)c3ccc(-c4ccccc4F)s3)CC2)cc1 | 1490 nM
18 | Oc1ccccc1CCNCC1CCc2ccccc2C1 (stereo unspecified) | 689 nM
19 | Cc1cccc2nc(-c3ccc(-c4cccc(CNC(C)C)c4)s3)[nH]c12 | 231 nM
20 | O=C(Cc1ccc(Cl)cc1)Nc1cc(Cl)ccc1Cn1cnc(N2CCNCC2)cc1=O | 998 nM
21 | Cc1cc(=NN=CC=Cc2ccccc2)c2ccccc2[nH]1 | 757 nM
22 | N=C(N)NCCCN(Cc1ccccc1)c1ccc(Cl)cc1 | 564 nM
23 | Cc1[nH]c(C)c(-c2ccc(-c3ccccc3)nc2)c(=O)c1Br | 661 nM
24 | O=C(Nc1ccc(-c2nc3ccccc3[nH]2)cc1)c1ccc(S(=O)(=O)N2CCCCC2)cc1 | 749 nM

Row | Compound | XC50
25 | O=C(Nc1ccc(Cl)c(C(F)(F)F)c1)Nc1ccc(Cl)c(C(F)(F)F)c1 | 768 nM
26 | O=C(Nc1cccc(CN2CCCN(Cc3ccsc3)CC2)c1)c1ccc(Cl)c(Cl)c1 | 885 nM
27 | O=C(NCC1CCN(Cc2ccsc2)C1)c1cc(-c2cccc(C(F)(F)F)c2)cs1 (stereo unspecified) | 700 nM
28 | CCN(CC)CCCC(C)Nc1ccnc2[nH]c3ccccc3c12 (stereo unspecified) | 1770 nM
29 | CC(C)c1ccc2c(c1)c(SC(C)(C)C)c(CC(C)(C)C#N)n2Cc1ccc(Cl)cc1 | 225 nM
30 | CCOc1ccc2ccccc2c1CNCCCCCCNCc1c(OCC)ccc2ccccc12 | 576 nM
31 | O=C(c1cc(-c2ccco2)n[nH]1)N1CCN(S(=O)(=O)c2ccc(Br)cc2)CC1 | 497 nM
32 | Fc1cccc(Nc2nc(NCc3ccc(OCc4ccccc4)cc3)nc(Nc3cccc(F)c3)n2)c1 | 1180 nM
33 | c1ccc(CN2CCC(NCc3ccc(-c4ccc(CNCc5cccnc5)cn4)cc3)CC2)cc1 | 879 nM
34 | O=C(NCC1CCN(CC2CCCCC2)C1)c1cc(-c2cccc(Cl)c2)cs1 (stereo unspecified) | 1090 nM
35 | OC1CCCN(Cc2ccc(-c3cccc(-c4nc5cc(F)ccc5[nH]4)c3)cc2)C1 (stereo unspecified) | 868 nM
36 | CCn1c(-c2nc(-c3ccnc(N4CCN(C)CC4)c3)cnc2N)nc2cc(S(C)(=O)=O)ccc21 | 815 nM
37 | O=C(/C=C/c1ccc(Cl)c(Cl)c1)NCCCCCN1CCCN(C(=O)Nc2cccc(F)c2)CC1 | 757 nM
38 | O=S(=O)(/C=C/c1ccccc1)N(Cc1ccc(-c2ccc(CNCCOc3ccccc3)cc2)cc1)CC1CCCCN1 (stereo unspecified) | 744 nM
39 | CS(=O)(=O)CCNC(=O)c1ccc(-c2cc3c(Nc4ccc5c(cnn5Cc5ccccc5)c4)ncnc3cn2)o1 | 995 nM
40 | CC(=NNC(S)=Nc1ccccc1Cl)c1ccccn1 | 80.3 nM
41 | Cc1ccc(F)c(NC(=O)c2c(-c3c(F)cccc3Cl)noc2C)c1 | 934 nM
42 | N#Cc1c(N2CCN(c3ccc(F)cc3)CC2)nc(N)c2c(N)nc3c(c12)CC(=O)N3C1CC1 | 837 nM
43 | COc1cc2nc(Nc3ccc4c(ccn4Cc4ccccc4)c3)nc(Nc3ccc4c(ccn4Cc4ccccc4)c3)c2cc1OC | 647 nM
44 | CCCCCCNC(=N)c1ccc2[nH]c(-c3ccc(O)cc3)nc2c1 | 190 nM
45 | CCCCCc1cc(O)c2c(c1)OC(C)(C)CC2C1=CCN(Cc2cnc3ccccc3c2)CC1 (stereo unspecified) | 276 nM
46 | CC[C@H](NC(=O)c1ccc(NC(=O)OC(C)(C)C)cc1)C(=O)N[C@@H](CO)C(=O)NCCCCc1ccccc1 | 830 nM
47 | COc1cc(Nc2ccnc3cc(-c4ccccn4)ccc23)cc(OC)c1OC | 912 nM
48 | COCCCNC(=O)c1ccc(O)c(-c2cc(Cl)cc(Cl)c2)c1 | 923 nM

Row | Compound | XC50
49 | Cc1ccc(C)c2c1[nH]c1ccc(C3=NCCN3)cc12 | 497 nM
50 | CC(=O)Nc1ncc(C(=O)Nc2ccc(-c3cccc(-c4nc5cc(C(F)(F)F)ccc5[nH]4)c3)cc2)s1 | 260 nM
51 | Cc1cc(NC(=O)c2coc3cc(F)c(N4CC(C)N(C)C(C)C4)cc23)ccc1-n1ccnc1 (stereo unspecified) | 841 nM
52 | COc1cc(NC2=NS(=O)(=O)c3cc(Cl)ccc3N2C)cc(OC)c1OC | 420 nM
53 | COc1cc2nc(NCCc3ccccc3)nc(N(C)Cc3ccccc3)c2cc1OC | 831 nM
54 | CC(Cc1ccc(Oc2ccccc2)cc1)NCC(O)c1cccc(C(F)(F)F)c1 (stereo unspecified) | 674 nM
55 | CN1CCOc2ccc(Nc3nnc(-c4cccc(-c5cccnc5)c4)o3)cc2C1 | 104 nM
56 | COc1cc2c(cc1OC)C(C(=O)Nc1ccc(C(F)(F)F)cc1)C(c1cccs1)N(C)C2=O (stereo unspecified) | 158 nM
57 | Oc1ccccc1CN1CCC(CCOC(c2ccccc2)c2ccc(Cl)cc2)CC1 (stereo unspecified) | 743 nM
58 | c1ccc2c(c1)CN(Cc1cc3ccccc3[nH]1)CC1(CCN(Cc3c[nH]c4cnccc34)CC1)O2 | 306 nM
59 | CCCC(=O)Nc1ccc(Nc2nc(C)cc(N3CCCC3)n2)cc1 | 1490 nM
60 | CC(C)c1cc(N)c2cc(NC(=O)COCC(=O)Nc3ccc4nc(C(C)C)cc(N)c4c3)ccc2n1 | 216 nM
61 | CCCCCCSc1nnc(COc2cccc3ccccc23)n1-c1ccc(OC)cc1 | 45.2 nM
62 | COc1cc(Nc2nccc(N3CCC(NC(=O)c4cc5ccccc5s4)C3)n2)cc(OC)c1OC (stereo unspecified) | 786 nM
63 | O=C(COc1ccc(F)cc1)NC1CCN(c2ccnc3cc(Cl)ccc23)C1 (stereo unspecified) | 265 nM
64 | CCOc1ccc2[nH]c(C)cc(=NN=Cc3ccccc3F)c2c1 | 738 nM
65 | COc1ccc2nccc([C@@H](O)CN3CCC(NCCOc4cc(F)cc(F)c4)CC3)c2c1 | 155 nM
66 | O=C(NCc1ccc2c(c1)OCO2)c1nn(CCN2CCC(N3CCCC3)CC2)cc1-c1ccc(Cl)c(Cl)c1 | 935 nM
67 | O=C(/C=C/c1cccc(Cl)c1)N1CCC(C(O)CN2CCC3(CC2)CN(C(=O)/C=C/c2cccc(Cl)c2)c2ccccc23)CC1 (stereo unspecified) | 892 nM
68 | O=C(c1cc2c(s1)-c1cccc(Cl)c1SC2)N1CCN(c2ccncc2)CC1 | 1010 nM
69 | CCN(CC)CCOC(=O)C(OC)(c1ccccc1)c1ccccc1 | 1020 nM
70 | O=C(Nc1cccc(C(F)(F)F)c1)Nc1cc(F)c(F)cc1Cl | 1960 nM
71 | O=C(/C=C/c1ccccc1Cl)NC1CCC(CN2CCC(c3c[nH]c4ccncc34)CC2)CC1 (stereo unspecified) | 334 nM
72 | COc1ccc2ncc(F)c(CCN3C4CCC3CC(NCc3ccc5c(c3)OCCO5)C4)c2n1 (stereo unspecified) | 225 nM

Row | Compound | XC50
73 | Fc1ccc(CNc2ncc(-c3ccsc3)c(-c3nccs3)n2)cc1 | 72.1 nM
74 | N=C(N)Nc1nc(-c2cc(NC(=O)C(F)(F)F)cc([N+](=O)[O-])c2)cs1 | 781 nM
75 | O=C(NC1CC1)c1ccc2cc(C(=O)N3Cc4ccccc4C(c4ccccc4)C3)ccc2c1 (stereo unspecified) | 910 nM
76 | O=c1ccc2ncc(Cl)c3c2n1CC3CN1CCC(NCc2cc3c(cn2)OCCO3)CC1 (stereo unspecified) | 961 nM
77 | CS(=O)(=O)c1ccc(CNCc2cccc(-c3cccc(-c4nc5cc(C(F)(F)F)ccc5[nH]4)c3)c2)cc1 | 182 nM
78 | COc1ccc(C(=O)Nc2ccc(Cl)cc2C(=O)Nc2ccncc2)cc1 | 822 nM
79 | Cc1ccc(C(C(=O)Nc2ccc(N3CCNCC3)c(Cl)c2)c2ccccc2)cc1 (stereo unspecified) | 843 nM
80 | COc1cccc(CNC(=O)c2cccc(-c3ccc(CN4CCC(N5CCCC5)CC4)cc3)n2)c1 | 1790 nM
81 | Clc1cccnc1N1CCN(c2ncccc2Cl)CC1 | 147 nM
82 | Cc1[nH]c2ccc(O)cc2c1C1CCN(CC2CCN(C(=O)/C=C/c3ccc(Cl)c(Cl)c3)CC2)CC1 | 998 nM
83 | CCOC(=O)c1c(C)n(C2CCCCC2)c2cc(Br)c(O)cc12 | 815 nM
84 | N#Cc1cc(C(=O)c2cc(Cl)ccc2O)cn(-c2cc(Cl)cc(Cl)c2)c1=O | 849 nM
85 | CC(C)n1c(CC2CCN(CC3CCN(C(=O)/C=C/c4ccc(Cl)c(Cl)c4)CC3)CC2)nc2ccccc21 | 612 nM
86 | CCCCCCNC[C@@H](O)[C@H](Cc1ccccc1)NC(=O)c1cc(NCC)cc(N2CCCCS2(=O)=O)c1 | 995 nM
87 | O=C(Nc1cccc(F)c1)N(Cc1ccc(-c2ccc(CN3CCNCC3)cc2)cc1)C1CCN(Cc2ccccc2)CC1 | 769 nM
88 | FC(F)(F)c1ccc2[nH]c(-c3ccc(-c4cccc(CNCc5cnn(-c6ccccc6)n5)c4)s3)nc2c1 | 329 nM
89 | CC(C)c1ccc(CN2CCC(CNC(=O)c3cc(-c4cccc(Cl)c4)cs3)C2)cc1 (stereo unspecified) | 752 nM
90 | CC(C)(C)c1cc(C(=O)N2CCN(c3ncccc3C(F)(F)F)CC2)n(Cc2ccccc2)n1 | 251 nM
91 | CC[C@H](C)CNC(=O)c1ccc(-c2cccc(CN3CCC(N4CCCC4)CC3)c2)nc1 | 787 nM
92 | Cc1cc(C)c(-c2n[nH]c3c2C(c2cccc(Cl)c2)N(Cc2ccco2)C3=O)c(O)c1 (stereo unspecified) | 1010 nM
93 | COc1ccc(C(=O)Nc2ccc3oc(-c4ccc(C(F)(F)F)cc4)cc3c2)cc1CCCN(C)C | 698 nM
94 | COc1cc(NC(=O)c2sc(-c3ccc(Cl)cc3)cc2NC(=O)N2CCCC2)ccc1OCCN1CCCC1 | 569 nM
95 | CC1CNC(c2cccc(NC(=O)Nc3cccc(C4=NC(C)CN4)c3)c2)=N1 (stereo unspecified) | 359 nM
96 | CS(=O)(=O)N1CC2(CCN(CCC(NC(=O)Nc3ccccc3)c3ccc(Cl)c(Cl)c3)CC2)c2ccccc21 (stereo unspecified) | 823 nM

— ChEMBL document CHEMBL1157539, “Thousands of chemical starting points for antimalarial lead identification” (Nature, 2010)
